Patent US8420052B2, “Imaging agents useful for identifying AD pathology” (Siemens Medical Solutions USA, Inc., priority 2008, dated 2013)

Test system: amyloid plaques and fibrils in human brain slices
Experiment: Human brain slice competition assay using autoradiography
Format: binding
Conditions: radiolabeled tracer approx. 20 uCi, 90 min rt, lower = more displacement; for _max low dose (percent dose remaining relative to control with no blocker): blocker 0.25 uM; for _max high dose (percent dose remaining relative to control with no blocker): blocker 2.5 uM
Protocol: Human Brain Slice Competition Assay Using Autoradiography
Briefly, 5 micron thick human brain slices from regions of the brain bearing high amyloid plaque and fibril burden were incubated with approximately 20 uCi of a radiolabeled tracer in 2.5%:2.5%:95% DMSO:EtOH:PBS in the presence of blocker (2.5 and 0.25 uM total concentration) or absence of blocker (control). The slices were incubated at rt for 90 min. The slices were then quickly washed in PBS, followed by 70% EtOH:PBS for 2 min, then 30% EtOH:PBS for 2 min and then quickly washed with PBS. The slices were dried for 30 min and then exposed on autoradiographic film for 20 min. The brain slices were then removed from the slide and the radioactivity counted in a gamma counter. The percent dose remaining, relative to a control with no blocker, at 0.25 uM is represented in the “_max low dose” column. The percent dose remaining, relative to a control with no blocker, at 2.5 uM is represented in the “_max high dose” column.

Row | SMILES | _max low dose (percent dose remaining relative to control with no blocker) | _max high dose (percent dose remaining relative to control with no blocker)
1 | COc1ccc2cc(-c3ccn[nH]3)ccc2c1 [Compound W1] | 70.48% | 35.38%
2 | COc1ccc2c(c1)sc1nc(-c3ccc(F)cc3)cn12 [Compound W119] | – | 7.85%
3 | FCCCCOc1cccc(-c2cc3ccccn3c2)c1 [IN3] | 98.13% | 67.27%
4 | CN(CCF)c1ccc(/C=C2/C(=O)Nc3ccccc32)cc1 [OX-2, (E)-3-(4-((2-fluoroethyl)(methyl)amino)benzylidene)indolin-2-one] | 68.22% | 82.78%
5 | Oc1ccc(-c2cc3ccccn3c2)cc1 [Compound W103] | 35.38% | 3.50%
6 | O=CNc1ccc2c(c1)[nH]c1cc(OCCOCCOCCF)ccc12 [CB10] | 69.29% | 21.60%
7 | CN(CCOCCOCCF)c1ccc2c(c1)[nH]c1cc(O)ccc12 [Compound W101] | 81.33% | 73.62%
8 | c1ccc2c(c1)[nH]c1cc(OCCOCCOCCOc3ccc4c(c3)[nH]c3ccccc34)ccc12 [Compound W70] | 88.20% | 89.53%
9 | FCCOCCOCCOc1ccc2c(c1)[nH]c1sc3ccccc3c12 [Compound W94] | 103.76% | 40.74%
10 | CN(CCCCF)c1ccc2c(c1)[nH]c1cc(O)ccc12 [CB14] | 114.19% | 49.02%
11 | FCCOCCOCCOc1ccc2c(c1)[nH]c1c3ccccc3sc21 [DHK4-57] | 81.06% | 30.70%
12 | COc1ccc2[nH]c3ccc(NCCF)cc3c2c1 [CB13] | 108.14% | 110.57%
13 | NC(=O)c1ccc2cc(-c3cccc([N+](=O)[O-])c3)cn2c1 [Compound W100] | 97.53% | 75.02%
14 | N#Cc1ccc(/C=C2\C(=O)Nc3ccc(F)cc32)cc1 [Compound W79] | 92.77% | 96.90%
15 | O=C(/C=C/C=C/c1ccccc1)c1cccs1 [Compound W24] | 55.16% | 23.51%
16 | O=CNc1ccc2c(c1)[nH]c1cc(OCc3ccccc3)ccc12 [WZ01169] | 42.09% | 36.55%
17 | CC(=O)n1c2ccccc2c2ccc(OCCOCCOCCF)cc21 [CB17] | 91.06% | 62.03%
18 | CNc1ccc2[nH]c3ccc(OCCOCCOCCF)cc3c2c1 [CB8] | 95.89% | 108.49%
19 | CNc1ccc2c(c1)[nH]c1cc(OCCF)ccc12 [Compound W106] | 46.04% | 21.03%
20 | FCCOCCOCCOc1ccc2c(c1)[nH]c1ccccc12 [CB3] | 69.78% | 29.53%
21 | CNc1ccc2c(c1)[nH]c1cc(O)ccc12 [GC3125] | 47.08% | 18.59%
22 | CNc1ccc(-c2nc3ccccc3s2)cc1 [BTA1, reference compound] | 33.66% | 17.80%
23 | CN(C)c1ccc(/C=C2\C(=O)Nc3ccc(F)cc32)cc1 [Compound W71] | 104.61% | 88.00%
24 | Nc1nc(-c2ccc3ccccc3c2)cs1 [w18] | 69.20% | 27.86%
25 | COc1cc2c(cc1N)oc1ccccc12 [Compound W33] | 82.52% | 36.72%

Row | SMILES | _max low dose (percent dose remaining relative to control with no blocker) | _max high dose (percent dose remaining relative to control with no blocker)
26 | FCCOc1ccc2c(c1)[nH]c1ccccc12 [CB1] | 74.86% | 30.34%
27 | COc1ccc2c(c1)[nH]c1c(C)nccc12 [Compound W65] | 105.49% | 94.16%
28 | c1ccc2c(c1)Cn1c-2nc2ccccc21 [Compound W81] | 96.06% | 81.94%
29 | O=C(c1ccccc1)n1c2ccccc2c2ccc(OCCOCCOCCF)cc21 [CB21] | 104.81% | 94.00%
30 | CN(C)c1ccc2c(c1)[nH]c1cc(OCCOCCOCCF)ccc12 [CB7] | 42.64% | 15.14%
31 | O=CNc1ccc2c(c1)[nH]c1cc(OCCF)ccc12 [CB12] | 59.97% | 12.29%
32 | Oc1ccc2c(c1)[nH]c1cc(NCCF)ccc12 [w78] | 99.49% | 63.32%
33 | FCCOCCOCCOc1ccc2c(c1)[nH]c1ncccc12 [DHK4-58] | 88.82% | 85.78%
34 | Nc1ccc2c(c1)oc1ccccc12 [Compound W20] | 95.11% | 43.52%
35 | CNc1ccc2c(c1)[nH]c1cc(OCCOCCOCCF)ccc12 [CB4] | 54.17% | 16.96%
36 | FCCOc1cccc(-c2cc3ccccn3c2)c1 [Compound W84] | 97.22% | 40.32%
37 | Oc1cccc2[nH]c3ccccc3c12 [Compound W19] | 100.46% | 89.32%
38 | CNc1ccc(-c2nc3ccc(OC)cc3s2)cn1 [Compound W184] | – | 8.05%
39 | COc1ccc(-n2c(=O)sc3ccccc32)cc1 [UG470, 3-(4-methoxyphenyl)benzo[d]thiazol-2(3H)-one] | 81.29% | 79.87%
40 | O=c1cc(-c2ccccc2)c2ccc(O)c(O)c2o1 [Compound 73] | 68.43% | 34.37%
41 | c1ccc2c(c1)[nH]c1cnccc12 [Compound W67] | 101.83% | 94.93%
42 | CC(=O)Nc1ccc2sc3ccccc3c2c1 [Compound W34] | 84.84% | 73.74%
43 | CN(C)c1ccc2c3ccc(OCCF)cc3n(CCF)c2c1 [Compound W102] | 91.92% | 92.00%
44 | CN(C)c1ccc(/C=C2/C(=O)Nc3ccccc32)cc1 [Compound W12] | 105.11% | 45.98%
45 | CC(=O)c1ccc2[nH]c(=O)sc2c1 [Compound W92] | 112.87% | 88.58%
46 | O=CNc1ccc2c(c1)[nH]c1cc(OCCOCCOCCF)ccc12 [CB9] | 93.92% | 80.06%
47 | FCCNc1nc(-c2ccc3ccccc3c2)cs1 [TZ001, N-(2-fluoroethyl)-4-(naphthalen-2-yl)thiazol-2-amine] | 98.06% | 52.00%
48 | Nc1ccc2c(c1)[nH]c1cc(OCc3ccccc3)ccc12 [Compound W42] | 49.95% | 17.60%
49 | N#CC1c2ccc(O)cc2N2C=CC=CC12 (centres unmarked) [Compound W99] | 87.14% | 76.06%
50 | Oc1cccc(-c2cc3ccccn3c2)c1 [Compound W73] | 66.38% | 35.16%
